From patent US10736872B1, “Pharmaceutical mixture to treat statin induced vascular calcification” (priority 2019, dated 2020)

Tests used:
Format in all cases: cell-based
[1] = tested on: human aortic smooth muscle cells (AoSMC); assay: Alkaline phosphatase activity assay in AoSMC; details: for increase of ALP activity / increase of ALP activity compared to control / increase in ALP activity compared to control: 1 mcM statin; for increase of ALP activity compared to control / increase in ALP activity compared to control: four days; for increase of ALP activity compared to control: FIG. 4A; for increase in ALP activity compared to control: pro-calcification condition (5 mM b-GP and 25 mcM forskolin), FIG. 4B; for decrease in ALP activity: 5 mM b-GP, 25 mcM forskolin
Method: Alkaline phosphatase activity assay in AoSMC: AoSMC were plated in 96 well plates and grown to confluent layer. […] Cells were washed with phosphate buffered saline (PBS) and supplemented with 50 mcl/well 25 mcg/ml 4-MUP (fluorescent ALP substrate, Sigma) in alkaline buffer (Sigma)/1% Triton X100 for 1 h at room temperature. Fluorescence was measured at 360/450 nm.
Statistical analysis: Results in figures are means±standard deviation (SD) from three or more repetitions from the most representative of at least two independent experiments. Differences between samples were estimated with a two-tailed Student's t-test using Excel software (Microsoft) and accepted as significant at p levels less than 0.05. The results in FIGS. 4A and 4B and FIGS. 5A and 5B are expressed as percentage of supplemented controls and presented as means±SD from six or more repetitions from the most representative of at least two independent experiments.
The calcification process of AoSMC was evaluated by the activity of cellular alkaline phosphatase (ALP). The study assessed the effects of Mixture 1 (micronutrient combination containing ascorbate) and ascorbate individually under standard (5% FBS/DMEM) and pro-calcification conditions (5% FBS/DMEM supplemented with 5 mM beta-glycerophosphate (b-GP) and 25 mcM forskolin—FIG. 4B).

[2] = tested on: human aortic smooth muscle cells (AoSMC); assay: Calcium accumulation in extracellular matrix of AoSMC
Method: Cell viability was monitored with MTT assay. […] Plant-derived micronutrients suppress monocyte adhesion to cultured human aortic endothelial cell layer by modulating its extracellular matrix composition. J Cardiovasc Pharmacol 2008; 52:55-65. After four washes with PBS, ECM layers were solubilized by incubation in 0.6N HCl for 48 hours at 37° C. Calcium content in solubilized samples was measured with TECO Ca assay according to the manufacturer's protocol. […] The calcification process of AoSMC was evaluated by the activity of cellular alkaline phosphatase and calcium accumulation in the cell-produced extracellular matrix (FIG. 1).

[3] = tested on: human aortic SMC; assay: Expression of osteoblast markers in AoSMC (immunoassay); details: 100 mcM ascorbic acid, 5 mM beta-glycerophosphate and 25 mcM forskolin, 4 weeks, FIG. 3A
[4] = tested on: human dermal fibroblasts (DF); assay: Expression of osteoblast markers in human dermal fibroblasts (immunoassay); details: 100 mcM ascorbic acid, 5 mM beta-glycerophosphate and 25 mcM forskolin, 4 weeks, FIG. 3B
[5] = plain 5% FBS/DMEM, five days, FIG. 5A
[6] = pro-calcification conditions (5 mM b-GP, 25 mcM forskolin), five days, FIG. 5B
[7] = 300 mcM ascorbate, regular growth medium, FIG. 1
[8] = 100 mcM ascorbate in the presence of simvastatin, without forskolin, FIG. 2A

CC[C@H](C)C(=O)O[C@H]1CCC=C2C=C[C@H](C)[C@H](CC[C@@H]3C[C@@H](O)CC(=O)O3)[C@H]21 [mevastatin]
increase of ALP activity [1, 5]: 61%
increase of ALP activity compared to control ([1]; plain 5% FBS/DMEM): 25%
increase in ALP activity compared to control [1]: 39%
increase of ALP activity [1, 6]: 41%
calcium accumulation ([2]; 1 mM mevastatin, with 25 mcM forskolin, FIG. 2B, control 1.35 mcg/well): 1.8 mcg/well

O=C1O[C@H]([C@@H](O)CO)C(O)=C1O [ascorbic acid, L-ascorbic acid]
ALP activity after addition of ascorbate ([1]; 300 mcM ascorbate in the presence of 1 mcM simvastatin, plain 5% FBS/DMEM, five days, FIG. 5A): decreased to control level
decrease in ALP activity ([1]; 300 mcM ascorbate, mevastatin containing samples, five days, FIG. 5B): 37%
decrease in ALP activity ([1]; 300 mcM ascorbate, pravastatin containing samples, five days, FIG. 5B): 24%
decrease of alkaline phosphatase activity [1, 7]: 80%
decrease in ALP activity ([1]; 300 mcM ascorbate, simvastatin containing samples, five days, FIG. 5B): 36%
decrease in ALP activity ([1]; 300 mcM ascorbic acid in the absence of statins, five days, FIG. 5B): 29%
decrease of statin-stimulated ALP activity ([1]; 300 mcM ascorbic acid in the presence of 1 mcM mevastatin, plain 5% FBS/DMEM, five days, FIG. 5A): 29%
decrease of statin-stimulated ALP activity ([1]; 300 mcM ascorbic acid in the presence of 1 mcM pravastatin, plain 5% FBS/DMEM, five days, FIG. 5A): 30%
decrease of alkaline phosphatase activity ([1]; 300 mcM ascorbic acid, no statin, plain 5% FBS/DMEM, five days, FIG. 5A): about 43%
decrease of calcium accumulation ([2]; 100 mcM ascorbate added in the presence of mevastatin, with forskolin, FIG. 2B, to below control values): 19%
accumulated calcium [2, 8]: 0.2 mcg/well
decrease of accumulated calcium [2, 8]: 54%
decrease of extracellular Ca accumulation by AoSMC [2, 7]: 20%
expression of all tested osteogenic markers [3]: significantly reduced
expression of all tested osteogenic markers [4]: significantly reduced

CC[C@H](C)C(=O)O[C@H]1C[C@H](O)C=C2C=C[C@H](C)[C@H](CC[C@@H](O)C[C@@H](O)CC(=O)O)[C@H]21 [pravastatin]
increase of ALP activity [1, 5]: 60%
increase of ALP activity compared to control ([1]; plain 5% FBS/DMEM): 39%
increase in ALP activity compared to control [1]: 25%
increase of ALP activity [1, 6]: 25%

CCC(C)(C)C(=O)O[C@H]1C[C@@H](C)C=C2C=C[C@H](C)[C@H](CC[C@@H]3C[C@@H](O)CC(=O)O3)[C@H]21 [simvastatin]
increase of ALP activity [1, 5]: 57%
increase in ALP activity compared to control [1]: 22%
increase of ALP activity [1, 6]: 30%
increase of calcium accumulation in AoSMC layers ([2]; simvastatin, without forskolin, FIG. 2A): 23%
